Like-named read-outs stand apart in the source and are kept apart here.
Molecular target: T1, human TSHR (Homo sapiens, UniProt P16473)
T1 construct: expressed in transfected cells
Test: Homogeneous Time Resolved Fluorescence (HTRF) cAMP assay, TSHR cell line
Format: cell-based
Conditions: for AC50: HTRF cAMP, TSHR cell line, 30 minute incubation; for Maximum Activity compared to TSH: 100% activity = response of 30 mU/ml TSH, 0% = DMSO control, in %; for Emax: read-out: Maximum Activity compared to TSH, 100% activity = response of 30 mU/ml TSH, 0% = DMSO control; call rule not given here

T1 sequence (P16473 21-764): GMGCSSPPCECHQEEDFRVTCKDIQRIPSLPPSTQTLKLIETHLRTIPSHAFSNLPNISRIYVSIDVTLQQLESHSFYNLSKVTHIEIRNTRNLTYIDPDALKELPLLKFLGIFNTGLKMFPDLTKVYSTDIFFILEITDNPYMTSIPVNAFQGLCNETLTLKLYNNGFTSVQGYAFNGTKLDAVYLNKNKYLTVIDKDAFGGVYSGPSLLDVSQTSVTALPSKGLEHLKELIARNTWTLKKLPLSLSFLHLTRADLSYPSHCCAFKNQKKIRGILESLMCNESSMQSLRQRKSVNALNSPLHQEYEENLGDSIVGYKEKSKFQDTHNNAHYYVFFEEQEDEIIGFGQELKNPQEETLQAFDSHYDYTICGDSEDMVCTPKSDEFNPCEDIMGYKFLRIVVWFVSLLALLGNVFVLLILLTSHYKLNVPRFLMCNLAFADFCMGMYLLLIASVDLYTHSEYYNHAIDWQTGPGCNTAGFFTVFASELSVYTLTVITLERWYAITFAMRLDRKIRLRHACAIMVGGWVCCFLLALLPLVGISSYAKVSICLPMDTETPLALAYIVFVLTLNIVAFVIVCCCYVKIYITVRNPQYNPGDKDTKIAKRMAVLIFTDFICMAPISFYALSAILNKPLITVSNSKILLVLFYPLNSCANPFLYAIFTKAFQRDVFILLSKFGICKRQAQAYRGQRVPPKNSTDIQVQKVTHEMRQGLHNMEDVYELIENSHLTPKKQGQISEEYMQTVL

| Structure (SMILES) | AC50 | Maximum Activity compared to TSH | AC50 (read-out: AC50) [µM] | further results |
| --- | --- | --- | --- | --- |
| COc1ccc(C2Nc3ccccc3C(=O)N2Cc2ccccc2)cc1COc1ccc(Cl)cc1 (stereo not drawn) [Structure 238] | inactive | – | – | – |
| COc1cccc(-c2nc(SC)nc3sc(C(=O)NC(C)(C)C)c(N)c23)c1 [Structure 239] | – | 30.00 | 17.8 | – |
| COc1cccc(-c2nc(SC)nc3sc(C(=O)NC(C)(C)C)c(N)c23)c1 [Structure 240] | inactive | – | – | – |
| O=C1CC(c2ccco2)CC2=C1C(c1ccncc1)n1nc(C(F)(F)F)nc1C2 (stereo not drawn) [Structure 244] | inactive | – | – | – |
| COc1ccc(C2Nc3ccccc3C(=O)N2Cc2ccco2)cc1COc1ccc([N+](=O)[O-])cc1 (stereo not drawn) [Structure 245] | inactive | – | – | – |
| COc1ccc(CN2C(=O)N(c3ccccc3)C(=O)C2c2ccccc2)cc1COc1ccc(NC(C)=O)cc1 (stereo not drawn) [Structure 247] | inactive | – | – | – |
| COc1ccc(CN(Cc2ccccc2)C(=O)c2ccno2)cc1COc1ccc(NC(C)=O)cc1 [Structure 248] | – | – | 70.8 | Emax: 32% |
| COc1ccc(CN(Cc2ccccc2)C(=O)c2ccno2)cc1COc1ccc(NC(C)=O)cc1 [Structure 249] | – | 38.00 | 50.1 | – |
| COc1ccc(C2Nc3ccccc3C(=O)N2Cc2ccccc2)cc1COc1ccc(C#N)cc1 (stereo not drawn) [Structure 250] | inactive | – | – | – |
| O=C1c2ccccc2NC(c2cc(Br)c3c(c2)OCO3)N1Cc1ccco1 (stereo not drawn) [Structure 251] | inactive | – | – | – |
| COc1cc(C2Nc3ccccc3C(=O)N2Cc2ccccc2)ccc1OCc1ccc(NC(C)=O)cc1 (stereo not drawn) [Structure 252] | inactive | – | – | – |
| O=C1c2ccccc2NC(c2ccccc2)N1Cc1ccco1 (stereo not drawn) [Structure 254] | inactive | – | – | – |
| O=C1c2ccccc2NC(c2ccccc2)N1Cc1ccco1 (stereo not drawn) [Structure 255] | inactive | – | – | – |
| COc1ccc(OCc2cc(C3Nc4ccccc4C(=O)N3Cc3ccccc3)ccc2OC)cc1 (stereo not drawn) [Structure 256] | – | 24.00 | 5.01 | – |
| COc1ccc(C2Nc3ccccc3C(=O)N2Cc2ccccc2)cc1COc1cccc(Cl)c1 (stereo not drawn) [Structure 259] | inactive | – | – | – |
| COc1ccc(O)c(C2Nc3ccccc3C(=O)N2Cc2ccccc2)c1 (stereo not drawn) [Structure 260] | inactive | – | – | – |
| COc1ccc(-c2nc3ccc(NC(=O)COC(C)=O)cc3c(=O)n2Cc2ccccc2)cc1COc1ccc(NC(C)=O)cc1 [Structure 261] | inactive | – | – | – |
| COc1ccc(C2Nc3ccccc3C(=O)N2Cc2ccco2)cc1COc1ccccc1 (stereo not drawn) [Structure 266] | inactive | – | – | – |
| CC(C)c1ccc(C2C3=C(CC(c4ccco4)CC3=O)Nc3nc(C(F)(F)F)nn32)cc1 (stereo not drawn) [Structure 268] | inactive | – | – | – |
| COc1ccc(CN(Cc2ccccc2)C(=O)c2ccccc2O)cc1 [Structure 271] | inactive | – | – | – |
| COc1ccc(C2Nc3ccccc3C(=O)N2Cc2ccccc2)cc1COc1ccc(F)cc1 (stereo not drawn) [Structure 272] | inactive | – | – | – |
| O=C(c1ccccc1O)N(Cc1cccs1)Cc1cccs1 [Structure 277] | inactive | – | – | – |
| COc1ccc(C2Nc3ccccc3C(=O)N2Cc2ccccc2)cc1COc1cccc(Cl)c1 (stereo not drawn) [Structure 278] | inactive | – | – | – |
| COc1ccc(C2Nc3ccccc3C(=O)N2Cc2ccco2)cc1COc1c(C)cccc1C (stereo not drawn) [Structure 284] | inactive | – | – | – |
| COc1ccc(CNCc2ccccc2)cc1COc1ccc(NC(C)=O)cc1 [Structure 285] | inactive | – | – | – |
| O=C(c1ccccc1O)N(Cc1ccccc1)Cc1cccs1 [Structure 287] | – | 30.00 | 22.4 | – |
| COc1ccc(CN(Cc2ccccc2)C(=O)c2ccccc2O)cc1 [Structure 291] | – | 38.00 | 35.5 | – |
| COc1ccc(-c2nc3ccc(NC(=O)CO)cc3c(=O)n2Cc2cccc(Cl)c2)cc1COc1ccc(NC(C)=O)cc1 [Structure 292] | inactive | – | – | – |
| COc1ccc(CN2C(=O)N(c3ccccc3)C(=O)C2c2ccccc2)cc1COc1ccc(NC(C)=O)cc1 (stereo not drawn) [Structure 293] | inactive | – | – | – |

More lines, main results first:

| AC50 | Maximum Activity compared to TSH | AC50 (read-out: AC50) [µM] | Structure (SMILES) | further results |
| --- | --- | --- | --- | --- |
| inactive | – | – | COc1ccc(C2Nc3ccccc3C(=O)N2Cc2ccc(-c3ccccc3)cc2)cc1COc1ccc(NC(C)=O)cc1 (stereo not drawn) [Structure 242] | – |
| inactive | – | – | COc1ccc(C2Nc3ccccc3C(=O)N2Cc2ccccc2)cc1Oc1ccc(NC(C)=O)cc1 (stereo not drawn) [Structure 243] | – |
| – | – | 20 | COc1ccc(C2Nc3ccccc3C(=O)N2CC(C)(C)C)cc1COc1ccc(NC(C)=O)cc1 (stereo not drawn) [Structure 257] | Emax: 20% |
| – | 21.50 | 28.2 | COc1ccc(C2Nc3ccccc3C(=O)N2C2CCCC2)cc1COc1ccc(NC(C)=O)cc1 (stereo not drawn) [Structure 258] | – |
| inactive | – | – | COc1ccc(C2Nc3ccccc3C(=O)N2Cc2ccccc2)cc1COc1ccc(NC(=O)c2ccccc2)cc1 (stereo not drawn) [Structure 263] | – |
| inactive | – | – | COc1ccc(C2Nc3ccccc3C(=O)N2Cc2ccccc2)cc1COc1ccc(NC(=O)c2ccccc2)cc1 (stereo not drawn) [Structure 264] | – |
| – | 24.00 | 6.31 | COc1ccc(C2Nc3ccccc3C(=O)N2Cc2ccccc2C(F)(F)F)cc1COc1ccc(NC(C)=O)cc1 (stereo not drawn) [Structure 265] | – |
| – | 24.50 | 7.94 | COc1ccc(C2N(Cc3ccccc3)C(=O)c3ccccc3N2C)cc1COc1ccc(NC(C)=O)cc1 (stereo not drawn) [Structure 267] | – |
| – | 28.00 | 25.1 | COc1ccc(C2Nc3ccccc3C(=O)N2Cc2ccccn2)cc1COc1ccc(NC(C)=O)cc1 (stereo not drawn) [Structure 269] | – |
| inactive | – | – | COc1ccc(C2Nc3ccccc3C(=O)N2Cc2ccccc2)cc1COc1ccc(C(N)=O)cc1 (stereo not drawn) [Structure 270] | – |
| – | 11.00 | 2.51 | COc1ccc(C2Nc3ccccc3C(=O)N2Cc2ccccc2Cl)cc1COc1ccc(NC(C)=O)cc1 (stereo not drawn) [Structure 273] | – |
| – | 28.00 | 20 | COc1ccc(C2Nc3cccc(OC)c3C(=O)N2Cc2ccccc2)cc1COc1ccc(NC(C)=O)cc1 (stereo not drawn) [Structure 274] | – |
| – | 23.50 | 7.94 | CCC(=O)Nc1ccc(OCc2cc(C3Nc4ccccc4C(=O)N3Cc3ccccc3)ccc2OC)cc1 (stereo not drawn) [Structure 275] | – |
| – | 32.00 | 25.1 | COc1ccc(C2Nc3ccccc3C(=O)N2CC(C)(C)C)cc1COc1ccc(NC(C)=O)cc1 (stereo not drawn) [Structure 276] | – |
| – | 20.50 | 4.47 | COc1ccc(C2Nc3ccccc3C(=O)N2Cc2ccccc2OC)cc1COc1ccc(NC(C)=O)cc1 (stereo not drawn) [Structure 279] | – |
| – | – | 17.8 | COc1ccc(C2Nc3ccccc3C(=O)N2Cc2ccccc2C)cc1COc1ccc(NC(C)=O)cc1 (stereo not drawn) [Structure 280] | Emax: 24% |
| – | 22.00 | 5.62 | COc1ccc(C2Nc3ccccc3C(=O)N2Cc2ccccc2C)cc1COc1ccc(NC(C)=O)cc1 (stereo not drawn) [Structure 281] | – |
| inactive | – | – | COc1ccc(C2Nc3ccccc3C(=O)N2Cc2ccco2)cc1COc1ccc(N)cc1 (stereo not drawn) [Structure 282] | – |
| – | 20.50 | 2.24 | COc1ccc(C2Nc3ccccc3C(=O)N2Cc2cccc3ccccc23)cc1COc1ccc(NC(C)=O)cc1 (stereo not drawn) [Structure 288] | – |
| inactive | – | – | COc1ccc(C2Nc3ccccc3C(=O)N2Cc2ccco2)cc1COc1ccc([N+](=O)[O-])cc1 (stereo not drawn) [Structure 289] | – |
| inactive | – | – | COc1ccc(C2Nc3ccccc3C(=O)N2Cc2ccco2)cc1COc1ccc([N+](=O)[O-])cc1 (stereo not drawn) [Structure 290] | – |

Reference: US9458141B2, “Low molecular weight thyroid stimulating hormone receptor (TSHR) agonists” (The United States of America, as represented by the …, priority 2008, dated 2016)
